In patent publication US20240409585A1, “MACROCYCLIC IMMUNOMODULATORS” (priority 2021, published 2024):
Bridge positions count the residues as written; N and C are the ends. Square brackets hold non-standard residues; d marks the D form. Peptide text beside a SMILES is read from it. * marks the point of attachment. ξ: configuration not given here. Phe(4-COOH) = N[C@@H](Cc1ccc(C(=O)O)cc1)C(=O)O; Tyr(Ph) = N[C@@H](Cc1ccc(Oc2ccccc2)cc1)C(=O)O; Bip = N[C@@H](Cc1ccc(-c2ccccc2)cc1)C(=O)O; Phe(2-Cl) = N[C@@H](Cc1ccccc1Cl)C(=O)O; Phe(3-Me) = Cc1cccc(C[C@H](N)C(=O)O)c1; Val(3-OH) = CC(C)(O)[C@H](N)C(=O)O; mTyr = N[C@@H](Cc1cccc(O)c1)C(=O)O; aIle = CC[C@@H](C)[C@H](N)C(=O)O; 4Pal = N[C@@H](Cc1ccncc1)C(=O)O; Cha = N[C@@H](CC1CCCCC1)C(=O)O; Cit = NC(=O)NCCC[C@H](N)C(=O)O; Ile(3ξ) = CCC(C)[C@H](N)C(=O)O; Thr(3ξ) = CC(O)[C@H](N)C(=O)O; Dap(Me) = CNC[C@H](N)C(=O)O; Carboxymethyl = O=C(O)C*; NMeA = CN[C@@H](C)C(=O)O; Orn = NCCC[C@H](N)C(=O)O; Dab = NCC[C@H](N)C(=O)O; ξV = CC(C)C(N)C(=O)O

Target: T1, PE-labeled human PD-L1-Ig binding to Jurkat cell line over-expressing human PD-1 (Jurkat-PD-1) (Homo sapiens, UniProt Q15116)
T1 construct: expressed in transfected cells; host or cells: Jurkat
Assay: Jurkat-PD-1 Cell Binding High-Content Screening Assay (CBA): Method 1
Settings: Jurkat-hPD-1 cells, PE-labeled PD-L1-Ig 20 nM final; read-out: Jurkat HPDL1 PD1 IC50 (uM) (Method 1)

T1 sequence (Q15116 25-288): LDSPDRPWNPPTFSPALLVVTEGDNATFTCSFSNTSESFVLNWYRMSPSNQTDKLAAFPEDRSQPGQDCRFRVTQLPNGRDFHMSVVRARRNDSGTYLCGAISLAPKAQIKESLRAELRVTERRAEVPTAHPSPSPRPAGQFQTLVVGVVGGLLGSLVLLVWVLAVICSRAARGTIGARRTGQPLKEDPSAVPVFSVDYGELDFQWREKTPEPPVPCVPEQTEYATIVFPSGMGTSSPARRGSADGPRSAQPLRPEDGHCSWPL

First: CCC(C)[C@@H]1NC(=O)[C@H](Cc2ccc(-c3ccccc3)cc2)NC(=O)[C@H](C(C)C)NC(=O)[C@H](Cc2c[nH]c3ccccc23)NC(=O)[C@H](CC(=O)O)NC(=O)[C@H](Cc2ccc(O)cc2)NC(=O)[C@H](CNC)NC(=O)CSC[C@@H](C(=O)N[C@@H](C)C(N)=O)NC(=O)[C@H](C(C)O)NC(=O)[C@H](C(C)C)NC(=O)[C@H](CC2CCCCC2)NC(=O)[C@H](CCN)NC(=O)[C@@H](CC(C)C)NC(=O)[C@H](C)N(C)C1=O (stereo partly drawn) [Compound 2050] ({CH2CO}-[Dap(Me)]YDWV[Bip][Ile(3ξ)][NMeA][dL][Dab][Cha]V[Thr(3ξ)]CA-NH2; thioether N-14)
Second: CC(C)C[C@H]1NC(=O)[C@H](C)N(C)C(=O)[C@H](C(C)C)NC(=O)[C@H](Cc2ccc(-c3ccccc3)cc2)NC(=O)[C@H](C(C)C)NC(=O)[C@H](Cc2c[nH]c3ccccc23)NC(=O)[C@H](CC(=O)O)NC(=O)[C@H](Cc2ccc(O)cc2)NC(=O)[C@H](Cc2ccccc2)NC(=O)CSC[C@@H](C(=O)N[C@@H](C)C(N)=O)NC(=O)[C@H]([C@@H](C)O)NC(=O)[C@H](C(C)C)NC(=O)[C@H](CC2CCCCC2)NC(=O)[C@H](CCCNC(=N)N)NC1=O [Compound 1487] ({CH2CO}-FYDWV[Bip]V[NMeA][dL]R[Cha]VTCA-NH2; thioether N-14)
The IC50 of the first is 32-fold lower: 0.01 µM for the first, 0.32 µM for the second. The first is the more potent here.

Going from `Cc1cccc2c(CC3NC(=O)[C@H](CC(=O)O)NC(=O)[C@H](Cc4ccc(O)cc4)NC(=O)[C@H](Cc4ccccc4)NC(=O)CSC[C@@H](C(=O)N[C@@H](C)C(N)=O)NC(=O)[C@H]([C@@H](C)O)NC(=O)[C@H](C(C)C)NC(=O)[C@H](CC(C)C)NC(=O)[C@H](CCCNC(=N)N)NC(=O)[C@@H](CC(C)C)NC(=O)[C@H](C)N(C)C(=O)[C@H](CCCNC(=N)N)NC(=O)[C@H](Cc4ccc(-c5ccccc5)cc4)NC(=O)[C@H](C(C)C)NC3=O)n[nH]c12` (mixture of isomers) [Compound 1105] to `Cc1cccc(C[C@@H]2NC(=O)[C@H](CC(=O)O)NC(=O)[C@H](Cc3ccc(O)cc3)NC(=O)[C@H](CC(N)=O)NC(=O)CSC[C@@H](C(=O)N[C@@H](C)C(N)=O)NC(=O)[C@H]([C@@H](C)O)NC(=O)[C@H](C(C)C)NC(=O)[C@H](CC(C)C)NC(=O)[C@H](CCCNC(=N)N)NC(=O)[C@@H](CC(C)C)NC(=O)[C@H](C)N(C)C(=O)[C@H](CCCNC(=N)N)NC(=O)[C@H](Cc3ccc(-c4ccccc4)cc3)NC(=O)[C@H](C(C)C)NC2=O)c1` [Compound 1192] ({CH2CO}-NYD[Phe(3-Me)]V[Bip]R[NMeA][dL]RLVTCA-NH2; thioether N-14), the IC50 falls from 0.87 µM to 0.03 µM (29-fold).

First: CC(C)C[C@@H]1NC(=O)[C@H](CCCN)NC(=O)[C@@H](CC(C)C)NC(=O)[C@H](C)N(C)C(=O)[C@H](C(C)C)NC(=O)[C@H](Cc2ccc(-c3ccccc3)cc2)NC(=O)[C@H](C(C)C)NC(=O)[C@H](Cc2c[nH]c3ccccc23)NC(=O)[C@H](CC(=O)O)NC(=O)[C@H](Cc2ccc(O)cc2)NC(=O)[C@H](CC(N)=O)NC(=O)CSC[C@@H](C(=O)N[C@@H](C)C(N)=O)NC(=O)[C@H]([C@@H](C)O)NC(=O)[C@H](C(C)C)NC1=O [Compound 1243] ({CH2CO}-NYDWV[Bip]V[NMeA][dL][Orn]LVTCA-NH2; thioether N-14)
Second: CC(C)C[C@@H]1NC(=O)[C@H](CCN)NC(=O)[C@@H](CC(C)C)NC(=O)[C@H](C)N(C)C(=O)[C@H](C(C)C)NC(=O)[C@H](Cc2ccc(-c3ccccc3)cc2)NC(=O)[C@H](C(C)C)NC(=O)[C@H](Cc2c[nH]c3ccccc23)NC(=O)[C@H](CC(=O)O)NC(=O)[C@H](Cc2cccc(O)c2)NC(=O)[C@H](CC(N)=O)NC(=O)CSC[C@@H](C(=O)N[C@@H](C)C(N)=O)NC(=O)[C@H]([C@@H](C)O)NC(=O)[C@H](C(C)C)NC1=O [Compound 1384] ({CH2CO}-N[mTyr]DWV[Bip]V[NMeA][dL][Dab]LVTCA-NH2; thioether N-14)
The IC50 of the first is 2-fold lower: 0.01 µM for the first, 0.02 µM for the second.

`CC(C)C[C@@H]1NC(=O)[C@H](CCCN)NC(=O)[C@@H](CC(C)C)NC(=O)[C@H](C)N(C)C(=O)[C@H](CCCNC(N)=O)NC(=O)[C@H](Cc2ccc(-c3ccccc3)cc2)NC(=O)[C@H](C(C)C)NC(=O)[C@H](Cc2c[nH]c3ccccc23)NC(=O)[C@H](CC(=O)O)NC(=O)[C@H](Cc2ccc(O)cc2)NC(=O)[C@H](CC(N)=O)NC(=O)CSC[C@@H](C(=O)NCC(N)=O)NC(=O)[C@H]([C@@H](C)O)NC(=O)[C@H](C(C)C)NC1=O` [Compound 1235] ({CH2CO}-NYDWV[Bip][Cit][NMeA][dL][Orn]LVTCG-NH2; thioether N-14) and `CC(C)C[C@@H]1NC(=O)[C@H](CCCCN)NC(=O)[C@@H](CC(C)C)NC(=O)[C@H](C)N(C)C(=O)[C@H](CCCNC(N)=O)NC(=O)[C@H](Cc2ccc(-c3ccccc3)cc2)NC(=O)[C@H](C(C)C)NC(=O)[C@H](Cc2c[nH]c3ccccc23)NC(=O)[C@H](CC(=O)O)NC(=O)[C@H](Cc2ccc(O)cc2)NC(=O)[C@H](CC(N)=O)NC(=O)CSC[C@@H](C(=O)NCC(N)=O)NC(=O)[C@H](CO)NC(=O)[C@H](C(C)C)NC1=O` [Compound 1474] ({CH2CO}-NYDWV[Bip][Cit][NMeA][dL]KLVSCG-NH2; thioether N-14) are within 1.5-fold of each other in IC50: 0.06 µM for the first, 0.08 µM for the second.

`CCC(C)[C@@H]1NC(=O)[C@H](Cc2ccc(-c3ccccc3)cc2)NC(=O)[C@H](C(C)C)NC(=O)[C@H](Cc2cccc(C)c2)NC(=O)[C@H](CC(=O)O)NC(=O)[C@H](Cc2ccc(OCC(=O)O)cc2)NC(=O)[C@H](C(C)O)NC(=O)CSC[C@@H](C(=O)N[C@@H](CCCN)C(N)=O)NC(=O)[C@H](C(C)O)NC(=O)[C@H](C(C)(C)O)NC(=O)[C@H](CC2CCCCC2)NC(=O)[C@H](CCN)NC(=O)[C@@H](CC(C)C)NC(=O)[C@H](C)N(C)C1=O` (stereo partly drawn) [Compound 2147] ({CH2CO}-[Thr(3ξ)]Y(Carboxymethyl)D[Phe(3-Me)]V[Bip][Ile(3ξ)][NMeA][dL][Dab][Cha][Val(3-OH)][Thr(3ξ)]C[Orn]-NH2; thioether N-14) and `CC[C@H](C)[C@@H]1NC(=O)[C@H](Cc2ccc(-c3ccccc3)cc2)NC(=O)[C@H](C(C)C)NC(=O)[C@H](Cc2cccc(C)c2)NC(=O)[C@H](CC(=O)O)NC(=O)[C@H](Cc2ccc(O)cc2)NC(=O)[C@H](CC(N)=O)NC(=O)CSC[C@@H](C(=O)N[C@@H](CCN)C(N)=O)NC(=O)[C@H](CCC(=O)O)NC(=O)[C@H](C(C)(C)O)NC(=O)[C@H](CC2CCCCC2)NC(=O)[C@H](CCN)NC(=O)[C@@H](CC(C)C)NC(=O)[C@H](C)N(C)C1=O` [Compound 1695] ({CH2CO}-NYD[Phe(3-Me)]V[Bip]I[NMeA][dL][Dab][Cha][Val(3-OH)]EC[Dab]-NH2; thioether N-14) are the same in IC50: 0.01 µM for the first, 0.01 µM for the second.

`CC(C)C[C@@H]1NC(=O)[C@H](Cc2c[nH]c3ccccc23)NC(=O)[C@H](CC(=O)O)NC(=O)[C@H](Cc2ccccc2Cl)NC(=O)[C@H](Cc2ccccc2)NC(=O)CSC[C@@H](C(=O)N[C@@H](C)C(N)=O)NC(=O)[C@H](CO)NC(=O)[C@H](C(C)C)NC(=O)[C@H](CC(C)C)NC(=O)[C@H](CC(N)=O)NC(=O)[C@@H](C)NC(=O)[C@H](C)N(C)C(=O)[C@H](C(C)C)NC(=O)[C@H](Cc2ccc(-c3ccccc3)cc2)NC1=O` [Compound 1807] ({CH2CO}-F[Phe(2-Cl)]DWL[Bip]V[NMeA][dA]NLVSCA-NH2; thioether N-14) and `CC(C)C[C@@H]1NC(=O)[C@H](Cc2c[nH]c3ccccc23)NC(=O)[C@H](CC(=O)O)NC(=O)[C@H](Cc2ccc(Oc3ccccc3)cc2)NC(=O)[C@H](Cc2ccccc2)NC(=O)CSC[C@@H](C(=O)N[C@@H](C)C(N)=O)NC(=O)[C@H](CO)NC(=O)[C@H](C(C)C)NC(=O)[C@H](CC(C)C)NC(=O)[C@H](CC(N)=O)NC(=O)[C@@H](C)NC(=O)[C@H](C)N(C)C(=O)[C@H](C(C)C)NC(=O)[C@H](Cc2ccc(-c3ccccc3)cc2)NC1=O` [Compound 1813] ({CH2CO}-F[Tyr(Ph)]DWL[Bip]V[NMeA][dA]NLVSCA-NH2; thioether N-14) are within 1.5-fold of each other in IC50: 0.24 µM for the first, 0.3 µM for the second.

Going from `CCNC(=O)[C@H](CCN)NC(=O)[C@@H]1CSCC(=O)N[C@@H](Cc2ccncc2)C(=O)N[C@@H](Cc2ccc(C(=O)O)cc2)C(=O)N[C@@H](CC(=O)O)C(=O)N[C@@H](Cc2c[nH]c3ccccc23)C(=O)N[C@@H](CC(C)C)C(=O)N[C@@H](Cc2ccc(-c3ccccc3)cc2)C(=O)N[C@@H]([C@@H](C)CC)C(=O)N(C)[C@@H](C)C(=O)N[C@H](CC(C)C)C(=O)N[C@@H](CCN)C(=O)N[C@@H](CC2CCCCC2)C(=O)N[C@@H](C(C)(C)O)C(=O)N[C@@H](CO)C(=O)N1` [Compound 1849] ({CH2CO}-[4Pal][Phe(4-COOH)]DWL[Bip]I[NMeA][dL][Dab][Cha][Val(3-OH)]SC[Dab]-NHEt; thioether N-14) to `CC[C@@H](C)[C@@H]1NC(=O)[C@H](Cc2ccc(-c3ccccc3)cc2)NC(=O)[C@H](Cc2cnc[nH]2)NC(=O)[C@H](Cc2c[nH]c3ccccc23)NC(=O)[C@H](CC(=O)O)NC(=O)[C@H](Cc2ccc(C(=O)O)cc2)NC(=O)[C@H](Cc2ccc(OCC(=O)O)cc2)NC(=O)CSC[C@@H](C(=O)N[C@@H](CCCCN)C(N)=O)NC(=O)[C@H](CO)NC(=O)C(C(C)C)NC(=O)[C@H](CC(C)C)NC(=O)[C@H](CC(N)=O)NC(=O)[C@@H](CC(C)C)NC(=O)[C@H](C)N(C)C1=O` (stereo partly drawn) [Compound 2101] ({CH2CO}-Y(Carboxymethyl)[Phe(4-COOH)]DWH[Bip][aIle][NMeA][dL]NL[ξV]SCK-NH2; thioether N-14), the IC50 rises from 0.01 µM to 0.11 µM (11-fold).

`CC(C)C[C@@H]1NC(=O)[C@H](Cc2c[nH]c3ccccc23)NC(=O)[C@H](CC(=O)O)NC(=O)[C@H](Cc2ccc(O)cc2)NC(=O)[C@H](Cc2ccccc2)NC(=O)CSC[C@@H](C(=O)N[C@@H](C)C(N)=O)NC(=O)[C@H](CO)NC(=O)[C@H](C(C)C)NC(=O)[C@H](CC(C)C)NC(=O)[C@H](CCC(=O)O)NC(=O)[C@@H](C)NC(=O)[C@H](C)N(C)C(=O)[C@H](CCC(=O)O)NC(=O)[C@H](Cc2ccc(-c3ccccc3)cc2)NC1=O` [Compound 1792] ({CH2CO}-FYDWL[Bip]E[NMeA][dA]ELVSCA-NH2; thioether N-14) gave an IC50 of 0.13 µM.
